Consider 15 molecules from ChEMBL document CHEMBL1122560, “Adrenal medulla imaging agents: a structure-distribution relationship study of radiolabeled aralkylguanidines” (J Med Chem, 1984).

This series can be described thus: Ratio of the concentration levels determined for the adrenal medulla to the liver after 72 hr; [Adrenal Medulla] / [liver]. The class given is ADME, tissue-based.
For `N=C(N)NCCc1cccc(I)c1`, the Ratio is 190.
Regarding `N=C(N)NCc1cc(I)cc(I)c1`, the Ratio came out at 5.2.
`N=C(N)NCc1ccc(I)cc1`: the Ratio is on record as 545.
As for `CC(N=C(N)N)c1cccc(I)c1` (single isomer, unassigned; (-)), the figure is 300.
With `CC(N=C(N)N)c1cccc(I)c1` (stereo in doubt; 8b(+)), the Ratio is 390.
Regarding `N=C(N)NCCN1CCCCCCC1` [GUANETHIDINE], the Ratio is recorded as 70.
Consider `N=C(N)NCCc1ccc(I)cc1`, for which the Ratio is recorded as 200.
With `N=C(N)NCc1cccc(I)c1` [IOBENGUANE], the Ratio is 720.
The figure for `CC(N=C(N)N)c1cccc(I)c1` (racemic) is 430; for `CC(N=C(N)N)c1ccc(I)cc1` (racemic) it is 190; for `N=C(N)N` [GUANIDINE] it is 1.4.
For `N=C(N)Nc1cccc(I)c1`, the Ratio is on record as 45.
The figure for `N=C(N)NCc1ccccc1` is 2700; for `N=C(N)NCc1ccccc1I` it is 130.
On to `N=C(N)NCc1ccc(I)c(I)c1`, for which the Ratio is recorded as 115.
